Assays:
Format in all cases: in vivo
Sprague-Dawley rats [1] = conditions: tail vein
Sprague-Dawley rats [2] = experiment: animal or person; conditions: rats; for ED50: Rattus norvegicus, LORR, up and down method, tail vein, class symbols, read-out: ED50
From the text: Evaluating indicator: The end point of anesthesia: LORR was used as the end point of anesthesia; General anesthesia effect: the disappearance of forepaw righting reflex in rats lasting for 30 seconds is taken as the index of general anesthesia effect; Anesthesia recovery index: the recovery of rat forepaw righting reflex was used as the index of anesthesia recovery.

Sprague-Dawley rats [3] = experiment: Pharmacological effect and adverse reactions under the equivalent dose (2ED50), Group C compounds; conditions: for Righting reflex duration / Sedation duration / Onset time: 2ED50, tail vein, rats, n=8; for Adverse reaction: Convulsions / Adverse reaction: Cough, broken-winded / Adverse reaction: Euphoria / Adverse reaction: Red urine / Adverse reaction: Slower breathing, Tetany convulsion / Adverse reaction: Systemic stiffness, Convulsions, Opisthotonus / Adverse reaction: Tongue stretching / Adverse reaction: Tremor / Adverse reaction: the four limbs rigidity: equivalent dose (2ED50), number of rats of n = 8
From the text: Evaluation index: onset time: from the completion of drug injection to the disappearance of forepaw righting reflex in rats; Duration of anesthesia: the time from the disappearance of rat forepaw righting reflex to the recovery of rat forepaw righting reflex; Recovery time of anesthesia: the time from the […] to complete recovery;

SMILES | Minimal lethal dose (Sprague-Dawley rats [1]) | Approximate therapeutic index (Sprague-Dawley rats [2]) | Righting reflex duration (Sprague-Dawley rats [3]) | Sedation duration (Sprague-Dawley rats [3]) | Onset time (Sprague-Dawley rats [3]; unit s) | Adverse reaction: Convulsions (Sprague-Dawley rats [3]) | Adverse reaction: Cough, broken-winded (Sprague-Dawley rats [3]) | Adverse reaction: Euphoria (Sprague-Dawley rats [3]) | Adverse reaction: Red urine (Sprague-Dawley rats [3]) | Adverse reaction: Slower breathing, Tetany convulsion (Sprague-Dawley rats [3]) | Adverse reaction: Systemic stiffness, Convulsions, Opisthotonus (Sprague-Dawley rats [3]) | Adverse reaction: Tongue stretching (Sprague-Dawley rats [3]) | Adverse reaction: Tremor (Sprague-Dawley rats [3]) | Adverse reaction: the four limbs rigidity (Sprague-Dawley rats [3]) | ED50 (Sprague-Dawley rats [2]) | Onset time (Sprague-Dawley rats [3]; unit min)
COCC(=O)c1cncn1[C@H](C)c1ccccc1 [Compound C33] | >14.2 mg/kg | >2.8 | 1.62 ± 0.85 min | 4.43 ± 0.92 min | <30 s | 0 | 0 | 0 | 8 | 0 | 0 | 0 | 1 | 0 |  | 
C[C@H](c1ccccc1)n1cncc1C(=O)COC(C)(C)C [Compound C45] | >10.8 mg/kg | >2.2 | 3.00 ± 1.02 min | 7.74 ± 0.85 min | <30 s | 0 | 0 | 0 | 8 | 0 | 7 | 0 | 0 | 1 |  | 
CCC(CC)OCC(=O)c1c(F)ncn1[C@H](C)c1ccccc1 [Compound C78] | >11.5 mg/kg | >14.3 | 2.59 ± 0.99 min | 7.30 ± 1.85 min | <30 s | 0 | 0 | 0 | 8 | 0 | 0 | 1 | 0 | 1 | 0.5 to 1 mg/kg | 
CC#CCC(=O)c1cncn1[C@H](C)c1ccccc1 [Compound C57] | >13.61 mg/kg | >16.6 | 1.89 ± 0.29 min | 6.12 ± 1.14 min |  | 0 | 0 | 0 | 8 | 0 | 0 | 2 | 1 | 0 | 2 to 10 mg/kg | <60 s
CCOCC(=O)c1c(F)ncn1[C@H](C)c1ccccc1 [Compound C72] | >8.9 mg/kg | >27.7 | 1.29 ± 0.64 min | 5.70 ± 1.51 min |  | 0 | 0 | 0 | 8 | 0 | 0 | 0 | 0 | 0 | 0.04 to 0.5 mg/kg | <60 s
C#CCOCC(=O)c1cncn1[C@H](C)c1ccccc1 [Compound C35] | >10.3 mg/kg | >12.9 | 2.26 ± 0.81 min | 4.89 ± 0.98 min | <30 s | 0 | 0 | 0 | 8 | 0 | 7 | 1 | 0 | 0 | 0.5 to 1 mg/kg | 
C[C@H](c1ccccc1)n1cncc1C(=O)COC1CCC1 [Compound C28] | >11.8 mg/kg | >2.4 | 1.91 ± 0.65 min | 5.63 ± 0.62 min | <30 s | 0 | 0 | 0 | 8 | 0 | 0 | 0 | 1 | 0 |  | 
